One assay deals with HCT116.CD133+ cells. The assay can be described thus: Inhibition of HCT116.CD133+ colonosphere formation. In kind it is cell-based, human. Conditions: IC30 values for 6 days. How it is done:
(§1) Supplementary Figure 28. Representative images of the HCT116 p53 +/+ colonospheres untreated or treated
(§2) with the investigated compounds at their respective IC 30 values for 72 h. Scale bars: 100 µm.
(§3) colonosphere formation similarly or more effectively than  Δ-[Fe 2L13]Cl4 and salinomycin, a
(§4) well-established CSC-potent agent.
(§5) 10.2 Separation of HCT116.CD133 + and HCT116.CDD133 - cells by magnetically
(§6) activated cell sorting (MACS)
(§7) Positive selection with a single marker of CD133/1 (AC133) was used to enrich for CSCs. The
(§8) cells were harvested by non-enzymatic Cell Stripper (Corning), prepared into single cell
(§9) suspension (30 µm strainer) and counted. Approx. 2×10^7 cells were obtained for cell sorting.
(§10) For a selection of CD133 single positive cells, the cells were stained with the APC-conjugated
(§11) incubated for 20 min at 4-8 °C. The cells were washed with buffer (PBS, 0.5% BSA, pH 7.2;
(§12) prepared by diluting MACS BSA Stock Solution (130-091-376) 1:20 with auto MACS Rinsing
(§13) Solution (130-091-222)) and incubated with Anti-APC Micro Bead (Miltenyi Biotec, 130-090- […]
(§14) three-times in Buffer and analyzed on BD FACSVerse flow cytometer (San Jose, CA, USA);
(§15) the data were analyzed using BD FACSSuite software.
(§16) Supplementary Figure 29. Representative histograms displaying the red fluorescence emitted by anti-CD133- […]
(§17) the medium. The number and size of spheres were determined using an inverted microscope.

Another assay relates to HCT116 p53+/+ cells. The assay can be described thus: Inhibition of HCT116 colonosphere formation. In kind it is cell-based, human. Conditions: IC30 for 72 h, then 6 days. The protocol:
Cells were treated with drug (IC30 concentration) for 72 h, washed, harvested with StemPro Accutase, and plated in ultra-low attachment 96-well culture plates (300 cells per well). Cells were cultured in for 6 days without disturbing the plates or replenishing the medium and the number/size of spheres were determined using an inverted microscope.
10. Anti-cancer stem cell study
10.1 Inhibition of HCT116 colonsphere formation
HCT116 p53+/+ (adherent) cells were treated with  Δ-[Fe 2L13]Cl4,  Δ-[Fe 2L3a3]Cl4 and
salinomycin (at their IC30 values) for 72 h. Cells were then washed with PBS, harvested by
StemProAccutase (Gibco) and plated in ultralow-attachment 96w culture plates (Corning)
(300cells per well). Cells were cultured in DMEM/F12 supplemented with B27 (-vitA, Gibco,
ngmL-1 FGF2 (Sigma, F0291) for 6 days without disturbing the plates and without replenishing
as §17
Supplementary Table 3. Quantification of colonospheres formation in HCT116 p53+/+ cells untreated or treated […]
aThe results are expressed as mean ± SD of three independent experiments.
Supplementary Figure 27. Quantification of colonosphere formation in HCT116 p53+/+ colonospheres untreated
or treated with the investigated compounds at their respective IC30 values for 72 h. The results are expressed as […]

Assay [1] relates to CSC enriched HCT116.CD133+ cells. The assay can be described thus: Cytotoxicity in HCT116.CD133+ cells, SRB assay. Conditions: Homo sapiens, 72 h, read-out: IC50 HCT116.CD133+. In kind it is cell-based. The source says: Supplementary Figure 30. Growth inhibitory effects in HCT116.CD133- and HCT116.CD133+ cancer cells.
Representative microscopy images of the HCT116.CD133- colonospheres in the absence (a) and presence of […]
salinomycin (b), Δ-[Fe 2L13]Cl4 (c), and Δ-[Fe 2L3a3]Cl4 (d), treated at their respective IC30 values for 6 days (scale […]
bar: 100 µm). Quantification of colonosphere formation from HCT116.CD133+ (e) and HCT116.CD133- (f,g) […]
under the same conditions. Data represent the mean value and SD from three independent experiments. p < 0.01, […]
10.5 Cytotoxicity in HCT116.CD133 + cells, SRB assay
Sorted HCT116.CD133+ cells were plated in 96w culture plates (TPP) (3000 cells per well) […]
and cultured for 3 days to allow cells to recover after sorting and to grow to the desired density.
Cells were then treated with different concentrations of the investigated compounds, […]
with Tris base (pH 10.5). The absorbance at 570 nm was measured using a SUNRISE Tecan […]
absorbance reader (Schoeller). The IC50 values were calculated from curves constructed by […]
plotting cell survival (%) versus drug concentration (μM). The reading values were converted […]
to the percentage of control (% cell survival). Cytotoxic effects were expressed as IC 50. […]
determined with SRB assay. a […]
aThe cells were treated for 72 h. The results are expressed as mean ± SD of three independent experiments. […]

A further assay concerns HCT116.CD133- cells. The assay can be described thus: Inhibition of HCT116.CD133- colonosphere formation. In kind it is cell-based, human. The following applies: IC30 values for 6 days. How it is done:
as §1, §2, §3, §4, §5, §6, §7, §8, §9, §10, §11, §12, §13, §14, §15, §16, §17

A further assay relates to HCT116p53+/+. The assay can be described thus: Cytotoxicity in HCT116 p53+/+ cells, SRB assay. The following applies: Homo sapiens, HCT-116, 72 h, read-out: IC50 HCT116p53+/+. In kind it is cell-based.
In another assay the test system is Na+/K+ ATPase. The experiment in a line: Rubidium based assay for detection of Na+/K+ ATPase activity. The arrangement: species or system human. Conditions: A2780 and HCT116 p53+/+ cell lines, 10 μM for 6 h, then RbCl (5.4 mM) 3 h, ICP-MS. The protocol:
Cells were seeded in 6-well plates and incubated for 24 h at 37 °C in an atmosphere of 5% CO2. Cells were then incubated with drug for 6 h, and subsequently the medium was removed and cells were washed with PBS. Cells were then incubated with RbCl (5.4 mM) for 3 h, washed and counted. Rubidium content was determined by ICP-MS.
8.4 Real-time cell growth monitoring
Real-time Cell Analyzer (RTCA) (xCELLigence RTCA SP Instrument, ROCHE) was employed for growth monitoring of cells in the absence and the presence of tested compounds.
After the background of E-plates reading (100 µL medium), the cells were added (5x10^3 cells/well; 50 µL) and grown for 22-28 h. Tested compounds at varying concentrations were then added in 50 µL of media. The impedance was monitored for additional 80 h. An arbitrary unit CI (cell index) is a quantitative measure reflecting the status of the cells (number of attached cells and cell status such as morphology) in an electrode-containing well. Normalized CI at a given time point is given by dividing CI at the time point by CI at a reference time point.
8.5 Rubidium based assay for detection of Na +/K+ ATPase activity
The cells were seeded on 6-well plates (5× 10^5 cells/dish) and incubated overnight. The cells were treated with the investigated compounds for 6 h at 10 µM concentration. […] The cells were then harvested, washed trice with PBS, counted and pelleted. […]

The values that follow come from paper PMC6839601, “Discovery of selective, antimetastatic and anti-cancer stem cell metallohelices via post-assembly modification” (Chemical Science, 2019).

SMILES strings stand for the structures.

As to `CC[C@@H](C(=O)[C@@H](C)[C@@H](O)[C@H](C)[C@@H]1O[C@@H]([C@@H](CC)C(=O)O)CC[C@@H]1C)[C@H]1O[C@]2(C=C[C@@H](O)[C@]3(CC[C@@](C)([C@H]4CC[C@](O)(CC)[C@H](C)O4)O3)O2)[C@H](C)C[C@@H]1C` [Salinomycin, salinomycin], the “inhibition of colonosphere formation from HCT116.CD133+ cells” value in the assay with HCT116.CD133+ cells was “effectively inhibit”. Further, in the assay with HCT116 p53+/+ cells (control 96 ± 20), the Diameter of colonospheres is 76 ± 17 µm. Moreover, the Spheres/1000cells in the assay with HCT116 p53+/+ cells (control 224 ± 14) is recorded as 142 ± 14. Besides, the IC50 in assay [1] was 1.12 ± 0.23 µM; in the assay with HCT116p53+/+, 1.48 ± 0.21 µM. Also, the “inhibition of colonosphere formation from HCT116.CD133- cells” value with HCT116.CD133- cells is recorded as “do not significantly inhibit”.
For `C[C@@H]1O[C@@H](O[C@H]2C[C@@H](O)[C@]3(CO)[C@H]4[C@H](O)C[C@]5(C)[C@@H](C6=CC(=O)OC6)CC[C@]5(O)[C@@H]4CC[C@]3(O)C2)[C@H](O)[C@H](O)[C@H]1O` [ouabain], in the assay on Na+/K+ ATPase, the “inhibition of Rb+ uptake” value is 39–57%.
